Where two headings read alike, the source gives them in different places.
Key:
Nucleoside Transporter [1] = target: T1, Nucleoside Transporter (Homo sapiens, UniProt Q99808); details: pH 7.4
T1 sequence (Q99808 1-456): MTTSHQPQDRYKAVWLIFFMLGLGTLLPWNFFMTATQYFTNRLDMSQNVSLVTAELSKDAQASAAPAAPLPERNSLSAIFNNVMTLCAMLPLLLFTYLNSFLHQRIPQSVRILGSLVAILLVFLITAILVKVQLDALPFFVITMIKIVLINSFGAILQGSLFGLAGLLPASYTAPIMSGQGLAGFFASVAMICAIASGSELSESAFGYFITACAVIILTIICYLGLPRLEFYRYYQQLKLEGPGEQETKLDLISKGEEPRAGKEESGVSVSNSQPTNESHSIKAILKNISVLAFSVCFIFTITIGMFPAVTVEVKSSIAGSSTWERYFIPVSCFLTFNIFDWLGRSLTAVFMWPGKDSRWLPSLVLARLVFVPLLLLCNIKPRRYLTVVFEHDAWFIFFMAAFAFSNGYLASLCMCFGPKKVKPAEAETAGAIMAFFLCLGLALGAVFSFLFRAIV

Nucleoside Transporter [2] = target: T1, Nucleoside Transporter; assay: biochemical
Nucleoside Transporter [3] = target: T1, Nucleoside Transporter; assay: radioligand binding assay with [3H]NBTI on human erythrocyte membranes; details: [[…] 1.5 nM, test concentration not printed (footnote c missing)

O=[N+]([O-])c1ccc(CSc2ncnc3c2nc(NC2CCCC2)n3Cc2ccccc2)cc1 [Example 14, 9-benzyl-8-(cyclopentylamine)-6-(4-nitrobenzyl)-mercaptopurine]
melting point: 150 to 151 °C | Ki (Nucleoside Transporter [1]): 29 nM

CCC(C)CNc1nc2c(SCc3ccccc3)ncnc2n1[C@@H]1O[C@H](CO)[C@@H](O)[C@H]1O (stereo partly shown) [Example 7, 6-benzyl-8-[(2-methyl-butyl)-amino]-thioinosine]
Ki (Nucleoside Transporter [1]): 3.6 nM

6-benzyl-8-(cyclohexylamino)-thioinosine [Example 10]
Ki (Nucleoside Transporter [1]): 0.94 nM

CCNc1nc2c(SCc3ccccc3)ncnc2n1[C@@H]1O[C@H](CO)[C@@H](O)[C@H]1O [Example 2, 6-benzyl-8-ethylamino-thioinosine]
Ki (Nucleoside Transporter [1]): 9.5 nM

6-benzyl-8-(n-pentylamino)-thioinosine [Example 5]
Ki (Nucleoside Transporter [1]): 2.3 nM

c1ccc(CSc2ncnc3c2nc(N2CCCC2)n3Cc2ccccc2)cc1 [Example 21, 9-benzyl-6-benzylsulfanyl-8-pyrrolidin-1-yl-9H-purine]
Ki (Nucleoside Transporter [2]): 514 nM

OC[C@H]1O[C@@H](n2c(N3CCCC3)nc3c(SCc4ccccc4)ncnc32)[C@H](O)[C@@H]1O [Example 11, 6-benzyl-8-pyrrolidino-thioinosine]
Ki (Nucleoside Transporter [1]): 410 nM

c1ccc(CSc2ncnc3c2nc(N2CCOCC2)n3Cc2ccccc2)cc1 [Example 20, 9-benzyl-6-benzylsulfanyl-8-morpholin-4-yl-9H-purine]
Ki (Nucleoside Transporter [2]): 1390 nM

CCCNc1nc2c(SCc3ccccc3)ncnc2n1[C@@H]1O[C@H](CO)[C@@H](O)[C@H]1O [Example 3, 6-benzyl-8-(n-propylamino)-thioinosine]
Ki (Nucleoside Transporter [1]): 5.3 nM

OC[C@H]1O[C@@H](n2c(NC3CCCC3)nc3c(SCc4ccccc4)ncnc32)[C@H](O)[C@@H]1O [Example 9, 6-benzyl-8-(cyclopentylamino)-thioinosine]
Ki (Nucleoside Transporter [1]): 0.64 nM

O=[N+]([O-])c1ccc(CSc2ncnc3c2nc(NC2CCCCC2)n3Cc2ccccc2)cc1 [Example 15, 9-benzyl-8-(cyclohexylamine)-6-(4-nitrobenzyl)-mercaptopurine]
melting point: 66 to 68 °C | Ki (Nucleoside Transporter [1]): 55 nM

9-benzyl-6-(4-nitrobenzyl)-8-pyrrolidino-mercaptopurine [Example 16]
Ki (Nucleoside Transporter [1]): 1520 nM

c1ccc(Cn2c(N3CCOCC3)nc3c(SCc4ccc5nonc5c4)ncnc32)cc1 [Example 19, 6-(benzo[c][1,2,5]oxadiazole-5-ylmethylsulfanyl)-9-benzyl-8-morpholin-4-yl-9H-purine]
Ki (Nucleoside Transporter [2]): 122 nM

OC[C@H]1O[C@@H](n2c(N3CCCCC3)nc3c(SCc4ccccc4)ncnc32)[C@H](O)[C@@H]1O [Example 12, 6-benzyl-8-piperidino-thioinosine]
Ki (Nucleoside Transporter [1]): 744 nM

6-benzyl-8-(n-butylamino)-thioinosine [Example 4]
Ki (Nucleoside Transporter [1]): 5.4 nM

OC[C@H]1O[C@@H](n2c(N3CCOCC3)nc3c(SCc4ccccc4)ncnc32)[C@H](O)[C@@H]1O [Example 13]
Binding Nucleoside Transporter (value printed as % in the Ki column) (Nucleoside Transporter [3]): 33%^c

OC[C@H]1O[C@@H](n2c(NC3CC3)nc3c(SCc4ccccc4)ncnc32)[C@H](O)[C@@H]1O [Example 8, 6-benzyl-8-(cyclopropylamino)-thioinosine]
Ki (Nucleoside Transporter [1]): 3 nM
